Active and inactive are the calls of the source.
How the values were obtained:
[1] = Luminescence Cell-Based Dose Response HTS to Identify Activators of Luciferase Translation or Activity in H4 […] Cells. [Related pubchem assays: 1829 (Project Summary), 1814 (Primary HTS)]; format: functional
H4 = assay: Luminescence Cell-Based Dose Response HTS to Identify Activators of 5'UTR Stem-Loop Driven Prion Protein mRNA Translation in H4 Neuroglioblastoma Cells. [Related pubchem assays: 1829 (Project Summary), 1814 (Primary HTS)]; format: functional; conditions: Homo sapiens
[2] = THP-1 cell cytotoxicity, dose response, cytotoxicity control for non-replicating M. tuberculosis project (AID 489025); format: functional
[3] = molecular target: T1, DNA repair protein RAD52 homolog (Homo sapiens, UniProt P43351); format: functional, biochemical
T1 sequence (P43351 whole entry): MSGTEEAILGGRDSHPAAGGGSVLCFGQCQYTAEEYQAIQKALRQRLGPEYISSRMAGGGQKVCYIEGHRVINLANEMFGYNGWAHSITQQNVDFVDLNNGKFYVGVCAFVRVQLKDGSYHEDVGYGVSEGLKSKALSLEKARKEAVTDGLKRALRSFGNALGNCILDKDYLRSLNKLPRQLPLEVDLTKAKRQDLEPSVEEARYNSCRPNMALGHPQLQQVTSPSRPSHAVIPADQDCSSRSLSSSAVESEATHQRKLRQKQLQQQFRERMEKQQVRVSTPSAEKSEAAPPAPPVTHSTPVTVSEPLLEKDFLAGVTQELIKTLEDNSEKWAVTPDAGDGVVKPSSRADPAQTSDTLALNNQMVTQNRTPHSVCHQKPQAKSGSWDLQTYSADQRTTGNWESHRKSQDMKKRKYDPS

[4] = molecular target: Glyceraldehyde-3-phosphate dehydrogenase (Homo sapiens, UniProt P04406)
Glyceraldehyde-3-phosphate dehydrogenase, sequence (P04406 whole entry): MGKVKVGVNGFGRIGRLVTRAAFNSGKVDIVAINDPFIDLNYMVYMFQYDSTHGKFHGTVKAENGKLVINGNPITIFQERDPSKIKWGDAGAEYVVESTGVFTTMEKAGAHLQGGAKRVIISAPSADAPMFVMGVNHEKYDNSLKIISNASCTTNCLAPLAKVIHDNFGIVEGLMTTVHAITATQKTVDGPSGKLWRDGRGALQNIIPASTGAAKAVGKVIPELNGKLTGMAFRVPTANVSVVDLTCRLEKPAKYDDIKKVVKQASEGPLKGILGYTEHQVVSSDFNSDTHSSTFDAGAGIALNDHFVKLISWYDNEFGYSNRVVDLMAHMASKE

[5] = molecular target: T2, Calpain-2 catalytic subunit (Sus scrofa, UniProt P43367); assay: m-calpain protease blockers, concentration series – biochemical, fluorogenic peptide substrate, dose response (AID 1420); format: functional
T2 sequence (P43367 whole entry): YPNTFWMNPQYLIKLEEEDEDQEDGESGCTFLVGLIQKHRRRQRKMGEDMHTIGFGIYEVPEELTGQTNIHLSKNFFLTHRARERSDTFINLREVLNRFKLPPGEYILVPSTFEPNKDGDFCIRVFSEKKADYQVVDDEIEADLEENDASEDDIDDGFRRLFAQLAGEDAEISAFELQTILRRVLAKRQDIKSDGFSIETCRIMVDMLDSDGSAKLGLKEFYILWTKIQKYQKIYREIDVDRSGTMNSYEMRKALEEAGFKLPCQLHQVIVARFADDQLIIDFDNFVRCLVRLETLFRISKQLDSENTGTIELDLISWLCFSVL

[6] = molecular target: T3, Heat shock factor protein 1 (Mus musculus, UniProt P38532); assay: decrease of HSF1-responsive luciferase luminescence – cell-based, NIH3T3, dose retest, confirmation (AID 2382); format: functional;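 note: NIH3T3 fibroblasts with HSF1-driven luciferase reporter stressed by proteasome inhibitor MG132; luminescence from HSF1-driven luciferase expression after 8 hours of MG132 stress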
T3 sequence (P38532 whole entry): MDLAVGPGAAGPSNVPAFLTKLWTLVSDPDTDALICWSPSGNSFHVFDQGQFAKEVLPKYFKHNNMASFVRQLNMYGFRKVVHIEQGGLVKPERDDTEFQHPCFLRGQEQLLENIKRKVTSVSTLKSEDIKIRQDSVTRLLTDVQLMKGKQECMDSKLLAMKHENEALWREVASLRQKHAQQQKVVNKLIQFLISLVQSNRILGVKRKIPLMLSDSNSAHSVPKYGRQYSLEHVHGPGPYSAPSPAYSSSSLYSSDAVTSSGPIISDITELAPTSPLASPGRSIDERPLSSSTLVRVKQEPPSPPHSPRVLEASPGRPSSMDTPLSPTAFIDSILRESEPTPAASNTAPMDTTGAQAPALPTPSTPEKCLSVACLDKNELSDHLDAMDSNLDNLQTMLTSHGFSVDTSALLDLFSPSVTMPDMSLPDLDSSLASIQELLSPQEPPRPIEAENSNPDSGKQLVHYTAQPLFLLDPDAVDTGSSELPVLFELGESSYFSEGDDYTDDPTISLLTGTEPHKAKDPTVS

[7] = molecular target: Eukaryotic translation initiation factor 4E (Mus musculus, UniProt P63073); assay: blockers of eIF4G binding by eIF4E – biochemical, TR-FRET, dose response (AID 855); format: functional;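 note: potency for disrupting eIF4E binding to eIF4GI seen as loss of FRET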
Eukaryotic translation initiation factor 4E, sequence (P63073 whole entry): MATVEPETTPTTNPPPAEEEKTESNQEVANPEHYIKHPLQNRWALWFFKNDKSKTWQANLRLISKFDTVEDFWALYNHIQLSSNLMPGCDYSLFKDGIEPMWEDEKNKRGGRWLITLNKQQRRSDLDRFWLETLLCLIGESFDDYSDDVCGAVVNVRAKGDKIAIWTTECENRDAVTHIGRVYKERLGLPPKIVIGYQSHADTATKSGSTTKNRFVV

Estrogen receptor beta = Estrogen receptor beta (Homo sapiens, UniProt Q92731);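 note: recombinant ER-beta bound to coactivator SRC1 peptide in presence of estradiol agonist; inhibitors block coactivator peptide binding and lower the FRET signal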
Estrogen receptor beta, sequence (Q92731 whole entry): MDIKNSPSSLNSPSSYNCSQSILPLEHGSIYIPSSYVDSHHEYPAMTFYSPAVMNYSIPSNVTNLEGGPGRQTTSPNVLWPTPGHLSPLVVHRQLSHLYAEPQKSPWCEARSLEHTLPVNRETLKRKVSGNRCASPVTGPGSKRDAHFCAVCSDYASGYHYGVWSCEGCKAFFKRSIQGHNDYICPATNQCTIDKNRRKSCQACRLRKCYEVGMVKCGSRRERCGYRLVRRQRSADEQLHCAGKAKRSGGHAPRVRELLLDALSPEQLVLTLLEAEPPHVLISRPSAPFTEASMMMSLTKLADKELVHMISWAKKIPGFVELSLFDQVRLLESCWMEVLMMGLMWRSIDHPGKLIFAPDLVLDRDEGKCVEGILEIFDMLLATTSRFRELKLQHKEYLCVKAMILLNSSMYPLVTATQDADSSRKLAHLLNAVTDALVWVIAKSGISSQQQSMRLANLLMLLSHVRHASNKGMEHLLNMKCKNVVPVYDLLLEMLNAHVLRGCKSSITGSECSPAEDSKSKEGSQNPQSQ

BJ [8] = assay: BJ-TERT fibroblast viability loss – cell-based, RAS-independent, luminescence, dose response (AID 1933); format: functional; conditions: Homo sapiens
BJ [9] = assay: cells; format: functional, cell-based; conditions: Homo sapiens
[10] = viability of PTEN-deleted HCT116 cells – cell-based, HCT116 PTEN knockout, dose response (AID 1047); format: functional;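 note: HCT116 colon tumor cells with PTEN knocked out; cells exposed to compound for 60 hours before readout; potency for loss of cell viability measured by luminescence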
[11] = viability of HCT116 lacking mutant beta-catenin – cell-based, human colon tumor, dose response (AID 1045); format: functional;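 note: HCT116 colon tumor cells with beta catenin knocked out; cells exposed to compound for 60 hours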
BJ [12] = assay: BJ-TERT-LT-ST fibroblast viability loss – cell-based, RAS-independent, luminescence, dose response (AID 1935); format: functional; conditions: Homo sapiens;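 note: BJ fibroblasts immortalized with TERT plus LT and ST oncogenes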
[13] = DRD fibroblast viability loss – cell-based, non-viral oncogenic, luminescence, dose response (AID 1934); format: functional; conditions: Homo sapiens
[14] = molecular target: T4, Short transient receptor potential channel 4 (Mus musculus, UniProt Q9QUQ5); assay: calcium entry via TRPC4 opening agents – cell-based, HEK293 TRPC4/mu-opioid, Fluo-4 calcium, dose response (AID 434937); format: functional
T4 sequence (Q9QUQ5 whole entry): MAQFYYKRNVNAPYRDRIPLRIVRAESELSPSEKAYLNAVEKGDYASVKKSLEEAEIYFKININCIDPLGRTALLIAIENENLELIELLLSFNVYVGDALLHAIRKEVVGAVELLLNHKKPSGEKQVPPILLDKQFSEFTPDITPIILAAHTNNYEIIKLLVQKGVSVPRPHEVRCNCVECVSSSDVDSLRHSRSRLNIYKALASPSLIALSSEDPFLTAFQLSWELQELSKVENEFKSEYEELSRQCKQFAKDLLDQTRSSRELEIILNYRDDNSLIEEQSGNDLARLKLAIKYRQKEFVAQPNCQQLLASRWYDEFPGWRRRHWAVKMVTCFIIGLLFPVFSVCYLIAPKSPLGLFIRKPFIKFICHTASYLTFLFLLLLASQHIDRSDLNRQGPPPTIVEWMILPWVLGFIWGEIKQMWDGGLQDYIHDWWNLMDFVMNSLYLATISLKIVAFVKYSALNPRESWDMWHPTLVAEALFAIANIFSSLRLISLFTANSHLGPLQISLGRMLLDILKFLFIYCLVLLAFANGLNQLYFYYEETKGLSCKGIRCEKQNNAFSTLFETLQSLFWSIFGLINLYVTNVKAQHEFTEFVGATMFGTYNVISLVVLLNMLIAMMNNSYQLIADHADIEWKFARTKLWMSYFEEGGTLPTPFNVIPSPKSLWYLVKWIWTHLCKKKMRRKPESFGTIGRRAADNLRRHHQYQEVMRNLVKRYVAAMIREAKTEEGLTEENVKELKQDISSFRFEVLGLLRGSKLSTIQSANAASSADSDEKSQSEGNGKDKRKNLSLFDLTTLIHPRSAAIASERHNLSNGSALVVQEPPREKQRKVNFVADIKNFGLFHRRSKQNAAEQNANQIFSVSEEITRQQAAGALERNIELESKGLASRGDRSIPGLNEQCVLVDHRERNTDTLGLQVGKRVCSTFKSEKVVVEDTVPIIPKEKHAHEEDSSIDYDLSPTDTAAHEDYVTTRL

[15] = molecular target: T5, DNA repair and recombination protein RAD54-like (Homo sapiens, UniProt Q92698); assay: RAD54 Holliday junction migration blockers – biochemical, fluorescence, cherry-picked samples, dose series, confirmation (AID 651657); format: functional
T5 sequence (Q92698 whole entry): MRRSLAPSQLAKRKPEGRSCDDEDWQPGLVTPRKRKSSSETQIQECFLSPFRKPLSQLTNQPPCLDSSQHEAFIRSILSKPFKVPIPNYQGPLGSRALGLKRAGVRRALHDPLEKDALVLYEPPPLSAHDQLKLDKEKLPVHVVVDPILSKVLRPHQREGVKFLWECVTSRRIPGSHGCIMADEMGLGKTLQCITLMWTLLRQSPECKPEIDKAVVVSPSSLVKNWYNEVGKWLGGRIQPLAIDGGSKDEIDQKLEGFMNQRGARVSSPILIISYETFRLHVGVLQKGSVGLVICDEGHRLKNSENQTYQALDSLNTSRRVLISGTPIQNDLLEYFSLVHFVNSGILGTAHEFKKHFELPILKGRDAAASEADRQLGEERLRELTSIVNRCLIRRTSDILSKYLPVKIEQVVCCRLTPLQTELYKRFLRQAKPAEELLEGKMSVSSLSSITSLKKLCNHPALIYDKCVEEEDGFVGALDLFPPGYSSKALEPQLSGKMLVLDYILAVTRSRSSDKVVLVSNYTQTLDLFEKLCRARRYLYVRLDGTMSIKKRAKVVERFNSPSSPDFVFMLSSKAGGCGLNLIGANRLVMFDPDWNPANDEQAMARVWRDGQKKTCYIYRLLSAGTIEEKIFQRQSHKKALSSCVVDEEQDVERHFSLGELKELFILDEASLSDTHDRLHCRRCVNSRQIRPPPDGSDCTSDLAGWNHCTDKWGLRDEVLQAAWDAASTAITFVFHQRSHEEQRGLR

[16] = molecular target: T6, Rac GTPase-activating protein 1 (Homo sapiens, UniProt Q9H0H5); assay: blockers of MgcRacGAP-driven Rac1 GTP hydrolysis – biochemical, ADP Hunter fluorescence, primary and confirmatory, confirmation (AID 624330); format: functional
T6 sequence (Q9H0H5 whole entry): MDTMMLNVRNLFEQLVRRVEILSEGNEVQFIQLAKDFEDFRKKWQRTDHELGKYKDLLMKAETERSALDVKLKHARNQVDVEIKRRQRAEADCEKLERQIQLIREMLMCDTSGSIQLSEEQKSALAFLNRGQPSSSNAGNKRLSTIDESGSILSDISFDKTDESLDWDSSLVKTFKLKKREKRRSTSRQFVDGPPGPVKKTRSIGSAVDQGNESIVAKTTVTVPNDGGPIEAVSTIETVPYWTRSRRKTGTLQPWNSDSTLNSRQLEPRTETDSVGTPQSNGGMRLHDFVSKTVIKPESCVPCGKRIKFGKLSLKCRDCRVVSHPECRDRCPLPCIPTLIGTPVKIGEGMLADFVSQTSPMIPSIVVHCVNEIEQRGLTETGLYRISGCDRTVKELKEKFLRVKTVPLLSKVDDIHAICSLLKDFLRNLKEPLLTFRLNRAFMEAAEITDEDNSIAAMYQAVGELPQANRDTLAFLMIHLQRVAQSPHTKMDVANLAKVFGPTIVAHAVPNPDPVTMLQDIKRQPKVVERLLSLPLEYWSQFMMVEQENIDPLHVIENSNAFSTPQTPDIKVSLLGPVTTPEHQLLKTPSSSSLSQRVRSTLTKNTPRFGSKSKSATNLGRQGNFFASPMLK

[17] = molecular target: T7, Ubiquitin-conjugating enzyme E2 N (Homo sapiens, UniProt P61088); format: functional;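 note: Dose-response confirmation in a TR-FRET assay detecting UBC13-driven polyubiquitin chain formation, inhibition measured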
T7 sequence (P61088 whole entry): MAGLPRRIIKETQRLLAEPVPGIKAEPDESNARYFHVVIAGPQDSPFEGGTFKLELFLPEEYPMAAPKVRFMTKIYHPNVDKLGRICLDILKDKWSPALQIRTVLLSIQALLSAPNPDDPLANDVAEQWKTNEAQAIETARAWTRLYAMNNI

[18] = intracellular Trypanosoma cruzi inhibitors in host cells – cell-based, plate reader, cherry-pick samples, set 3, dose response (AID 651818); format: functional;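 note: compounds incubated with infected cells for about four days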

Compound: O=C(CCC1CCCC1)Nc1ccc(Br)cn1
- EC50 [1]: 0.805 µM (active)
- EC50 (H4): > 120 µM (not active)
- CC50 [2]: > 40 µM (active)

Compound: CN(C)CCCN=C(S)N(CCN(C)C)Cc1cc2cc3c(cc2nc1O)OCCO3
- AC50 [3]: 5.91 µM (active)

Compound: O=C(CCC1CCCC1)Nc1nnc[nH]1
- IC50 [4]: > 10 µM (inconclusive)

Compound: CC(C)Cc1ccc(C(C)C(=O)OCC(=O)c2c[nH]c3ccccc23)cc1 (configuration not stated)
- IC50 [5]: 6.65 µM (not active)

Compound: Cn1c2c(c(=O)n(C)c1=O)C(CC(=O)Nc1ccccc1)C(=O)N2 (configuration not stated)
- EC50 [6]: > 195 µM (not active)
- IC50 [5]: 2.62 µM (not active)

Compound: Cn1c(N)c(C(=O)COC(=O)CC2CC3CCC2C3)c(=O)n(C)c1=O (configuration not stated)
- IC50 [5]: 2.16 µM (active)

Compound: COc1ccc(C(C)=O)c2c(O)cccc12
- IC50 [5]: 0.917 µM (not active)

Compound: Clc1ccc(OCCCn2cncn2)cc1Cl
- IC50 [7]: > 64 µM (inactive)

Compound: Oc1cc2c(cc1C(c1ccc(Br)cc1)N1CCCC1)OCO2 (configuration not stated)
- IC50 [7]: 50 µM (inactive)

Compound: Cc1n[nH]c(C)c1S(=O)(=O)N(CC(=O)N1CCc2ccccc21)c1ccc(C(C)C)cc1
- IC50 (Estrogen receptor beta): > 50 µM (not active)

Compound: CCN(CC)CCCNC(=O)c1cc2c(-c3ccc(Cl)cc3)nn(C)c2s1
- EC50 (BJ [8]): 9.1 µM (active)
- EC50 (BJ [9]): 21.8 µM (active)
- EC50 [10]: 5.12 µM (active)
- EC50 [11]: 4.29 µM (active)
- EC50 (BJ [12]): 12.1 µM (inconclusive)
- EC50 [13]: 10.4 µM (active)
- EC50 [14]: 0.335 µM (active)
- AC50 [15]: 35.9 µM (active)

Compound: Cc1ccc(C)c(SCC(=O)NC(=O)Nc2ccc3c(c2)OCCO3)c1
- IC50 [5]: < 0.4 µM (not active)

Compound: COc1ccccc1CN1CCN(C(=O)c2ccncc2)CC1
- IC50 [7]: > 64 µM (inactive)
- IC50 [16]: 120 µM (active)

Compound: CCC[C@@H](CN1CCC[C@H]1CN1C(N)=NC[C@H]1CC(C)C)N1C[C@@H]([C@H](C)CC)N(CCc2ccc(Cl)c(Cl)c2)C1=N
- IC50 [17]: > 20 µM (inactive)
- AC50 [3]: 12.4 µM (active)

Compound: CC(=O)Nc1cc(-c2cccc(C(=O)NCCN(C)C)c2)cn2c(-c3ccc(S(C)(=O)=O)cc3)cnc12
- AC50 [15]: 25.8 µM (active)
- AC50 [3]: 2.7 µM (active)

Compound: Cc1nc2nc(C)c(C)nc2nc1C
- AC50 [15]: 34.7 µM (active)

Compound: C[C@@H]1CCCCO[C@@H](CN(C)Cc2ccc(Cl)c(Cl)c2)[C@@H](C)CN([C@H](C)CO)C(=O)c2cc(NC(=O)Nc3ccc4c(c3)OCO4)ccc2O1
- AC50 [18]: 3.68 µM (active)

Compound: COc1ccc(-c2nc(C(=O)NCCCN3CCOCC3)cc3c2[nH]c2ccccc23)cc1OC
- AC50 [15]: 13.7 µM (active)
- AC50 [3]: 4.84 µM (active)

From ChEMBL document CHEMBL1201862, “PubChem BioAssay data set” (2004)
